Reference: publication PMC11172336, “Exploring Syndecan-4 and MLP and Their Interaction in Primary Cardiomyocytes and H9c2 Cells” (Cells, 2024)
One block for each compound: values may come before it. Where a SMILES comes first, the peptide text is derived from it. Where no end group is shown, it is not given here. The star is where a group is joined. Biotin = O=C1N[C@H]2[C@H](CS[C@H]2CCCCC(=O)*)N1; Ahx = NCCCCCC(=O)O

How the values were obtained:
[1] = tested on: cytoplasmic domain of syndecan-4 (SDC4cyt); test: ELISA-based assay, wells coated with MLP peptides, overlaid with biotin-SDC4cyt; assay type: binding, human; settings: for biotin-SDC4cyt binding to 30 amino acid-long overlapping MLP-WT peptides: 10 µg peptide coated, biotinylated peptide 2-5 µM, 2 h 37 °C, absorbance 450 nm, normalized to SDC4scram, n = 12-28; for biotinylated SDC4cyt binding to mutated MLP peptide compared with MLP-WT peptide: 10 µg 30-mer peptide coated, SDC4cyt normalized to SDC4scram, related to MLP-WT (100%), n = 16, Mann-Whitney U
Protocol: (§1) 96-well ELISA microplates were coated with 10 µg of WT or mutated human 6xHis-MLP recombinant proteins or 10 µg of MLP peptides in PBS, and rotated at 4 °C overnight. Each well was rinsed with 0.05% Tween-20 in PBS (PBS-T) and blocked with 0.5% gelatin (G-1890, Sigma Merck, Darmstadt, Germany) for one hour at room temperature before incubation with the given biotinylated peptides at a final concentration of 2–5 µM for two hours at 37 °C with gentle agitation. Each well was then thoroughly washed with PBS-T five times before incubation with 100 µL of Biotin-HRP (A0185, Sigma Merck, Darmstadt, Germany) for 30 min at room temperature with gentle agitation. Each well was then washed with PBS-T 5 times before incubation with 100 µL of Ultra TMB substrate solution (34028, Thermo Fisher Scientific, Waltham, MA, USA) for 15–30 min at room temperature with gentle agitation to develop a blue color signal. The reaction was stopped with 100 µL of 2 M hydrochloric acid (HCl) per well (yellow color development). The absorbance of each well was read at 450 nm (Hidex sense multimodal microplate reader, Åbo, Finland).
We next aimed to identify the syndecan-4-MLP-binding domain(s). […]
Multiple human mutations in MLP are associated with hypertrophic cardiomyopathy (HCM) or dilated cardiomyopathy (DCM) (illustrated in Figure 2E). […] To test whether syndecan-4 binding to MLP was affected by any of the HCM- or DCM-associated mutations, we used an ELISA-based assay, where wells were coated with WT or mutated MLP peptide sequences.

recombinant 6xHis-MLP = test: ELISA-based MLP self-association assay, coated recombinant 6xHis-MLP overlaid with biotinylated MLP-WT peptides; assay type: binding, human; settings: 10 µg protein coated; biotinylated peptide 2-5 µM; PBS-only wells subtracted; n = 8
Protocol: as §1
To more precisely map the sites of self-association in MLP, an ELISA-based screening method was used. Full-length recombinant 6xHis-MLP-WT protein was coated into wells and overlayed with biotinylated overlapping MLP-WT peptides, together representing the full-length MLP sequence. […] Furthermore, to test whether mutations could affect self-association, wells were instead coated with mutated recombinant 6xHis-MLP proteins and overlayed with the biotinylated MLP-WT peptides, mimicking a heterozygous interaction. Compared to the WT recombinant protein, MLP peptides aa 50–79 and 125–154 bound weaker to most of the mutated MLP recombinant proteins, except for the HCM-associated L44P (at aa 125–154) and C58G mutations (at aa 50–79 and […]) (Figure 5D, left and right panel). A larger increase in N- and C-terminal binding was also observed for C58G.

recombinant 6xHis-MLP-WT = biological target: T1, recombinant 6xHis-MLP-WT (Homo sapiens, UniProt P50461); test: Biacore surface plasmon resonance of SDC4cyt and MLP; assay type: binding; settings: SPR, biotin-ahx-SDC4cyt immobilized on SA chip, 6xHis-MLP-WT injected, 1:1 Langmuir fit, n = 4
T1 construct: All MLP recombinant proteins were full length and had 6xHis tags at the N-terminus; purchased GenScript Biotech Corp
T1 sequence (P50461 1-194): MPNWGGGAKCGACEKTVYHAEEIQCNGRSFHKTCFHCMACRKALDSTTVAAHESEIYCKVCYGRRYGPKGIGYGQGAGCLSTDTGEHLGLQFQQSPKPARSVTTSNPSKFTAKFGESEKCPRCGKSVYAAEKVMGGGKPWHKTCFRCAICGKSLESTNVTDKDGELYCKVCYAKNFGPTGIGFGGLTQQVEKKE
Protocol: A streptavidin (SA) chip (BR1000032, Cytiva, Marlborough, MA, USA) was conditioned with three 1 min injections of 1 × Biacore running buffer (BR100826, Cytiva, Marlborough, MA, USA), and biotinylated SDC4cyt was immobilized at 133–350 resonance units (RUs). Recombinant 6xHis-MLP-WT was dialyzed into 1 × Biacore running buffer, and increasing concentrations were injected over the chip’s surface at a flow rate of 30 µL per minute for 180 s. For the different runs, concentration ranges spanned 2.9–14.6 nM, 1.2–100 nM, and 21.2–500 nM. The dissociation time was set to 600 s. Sensorgrams were analyzed using the Biacore X100 software (Version 2.0.1) with the assumption of 1:1 binding (Langmuir binding model).
The binding of SDC4cyt and MLP was further investigated with surface plasmon resonance (SPR), where a biotinylated SDC4cyt peptide was immobilized on an SA chip, and a serial dilution of recombinant 6xHis-MLP-WT protein was injected over the chip. The results were analyzed by fitting with a 1:1 interaction model (Langmuir). The dissociation equilibrium constant (kD) was 15.6 ± 7.8 nM, with an association constant (ka) of (8.7 ± 1.4) × 10^4 M^−1 s^−1 and a dissociation rate constant (kd) of (12.2 ± 5.3) × 10^−4 s^−1, indicating a strong interaction (Figure 2D). […]

human MLP = test: Peptide array overlay of MLP 20-mers with biotinylated peptide; assay type: binding; settings: 20-mers with 3 amino acid offset, overlay overnight at 4 °C, n = 3
Protocol: Human, rat, and mouse MLP were synthesized as overlapping 20-mers with three amino acid offsets onto cellulose membranes by an automated MultiPep peptide synthesizer (INTAVIS Bioanalytical instruments AG, Tübingen, Germany). After blocking, membranes were incubated with a biotin-ahx-SDC4cyt (SDC4cyt) peptide, a scrambled biotin-ahx-SDC4cyt (SDC4scram), a custom-made MLP antibody (#R06991, GenScript Biotech Corp, Piscataway, NJ, USA), or a commercially available MLP antibody (sc-166930, Santa Cruz, Dallas, TX, USA) overnight at 4 °C. The remaining consequent steps were identical to those performed for immunoblotting, as described further below.
We next aimed to identify the syndecan-4-MLP-binding domain(s). A biotinylated peptide covering the cytoplasmic domain of syndecan-4 (SDC4cyt) was overlaid onto 20’mer overlapping peptides covering the full length of human MLP.

biotin-SDC4cyt binding to 30 amino acid-long overlapping MLP-WT peptides [1]: binding was confirmed | binding of biotinylated MLP-WT peptide to full-length recombinant 6xHis-MLP-WT (self-association) (recombinant 6xHis-MLP): strongest binding
Compound: MLP-WT peptide aa 50–79: 30 amino acid-long overlapping MLP-WT peptide, amino acids 50–79, with or without N-terminal biotin (AAHESEIYCKVCYGRRYGPKGIGYGQGAGC)

biotin-SDC4cyt binding to 30 amino acid-long overlapping MLP-WT peptides [1]: binding was confirmed | binding of biotinylated MLP-WT peptide to full-length recombinant 6xHis-MLP-WT (self-association) (recombinant 6xHis-MLP): Minimal binding
Compound: MLP-WT peptide aa 100–129: 30 amino acid-long overlapping MLP-WT peptide, amino acids 100–129, with or without N-terminal biotin (RSVTTSNPSKFTAKFGESEKCPRCGKSVYA)

biotinylated SDC4cyt binding to mutated MLP peptide compared with MLP-WT peptide [1]: tendency of reduced binding
Compound: AAHESEIYCKVCYGCRYGPKGIGYGQGAGC [MLP-R64C, 30-mer human MLP peptide with R64C mutation]

biotinylated SDC4cyt binding to mutated MLP peptide compared with MLP-WT peptide [1]: significantly weaker
Compound: CNGRSFHKTCFHCMACRKAPDSTTVAAHES [MLP-L44P, 30-mer human MLP peptide with L44P mutation]

biotin-SDC4cyt binding to 30 amino acid-long overlapping MLP-WT peptides [1]: binding was confirmed | binding of biotinylated MLP-WT peptide to full-length recombinant 6xHis-MLP-WT (self-association) (recombinant 6xHis-MLP): strongest binding
Compound: MLP-WT peptide aa 125–154: 30 amino acid-long overlapping MLP-WT peptide, amino acids 125–154, with or without N-terminal biotin

biotinylated SDC4cyt binding to mutated MLP peptide compared with MLP-WT peptide [1]: tendency of reduced binding
Compound: AAHESEIYCKVCYGRRYGPKGIRYGQGAGC [MLP-G72R, 30-mer human MLP peptide with G72R mutation]

biotinylated SDC4cyt binding to mutated MLP peptide compared with MLP-WT peptide [1]: significantly weaker
Compound: CNGRSFHKTCFHCMACRKALDRTTVAAHES [MLP-S46R, 30-mer human MLP peptide with S46R mutation]

Compound: AAHERGIYCKVCYGRRYGPKGIGYGQGAGC [MLP-S54R,E55G, 30-mer human MLP peptide with S54R,E55G mutation]
biotinylated SDC4cyt binding to mutated MLP peptide compared with MLP-WT peptide [1]: significantly weaker

kon (recombinant 6xHis-MLP-WT; read-out: association constant (ka)): 87000 M⁻¹ s⁻¹ | koff (recombinant 6xHis-MLP-WT; read-out: dissociation rate constant (kd)): 0.00122 s⁻¹
Compound: CC[C@H](C)[C@H](NC(=O)[C@@H]1CCCN1C(=O)[C@H](CCCCN)NC(=O)[C@H](CCCCN)NC(=O)CNC(=O)[C@H](CC(C)C)NC(=O)[C@H](CC(=O)O)NC(=O)[C@H](Cc1ccc(O)cc1)NC(=O)[C@H](CO)NC(=O)CNC(=O)[C@H](CCC(=O)O)NC(=O)[C@H](CC(=O)O)NC(=O)[C@H](CCCCN)NC(=O)[C@H](CCCCN)NC(=O)[C@H](CCCCN)NC(=O)[C@H](CCSC)NC(=O)[C@H](CCCNC(=N)N)NC(=O)CCCCCNC(=O)CCCC[C@@H]1SC[C@@H]2NC(=O)N[C@@H]21)C(=O)N[C@@H](Cc1ccc(O)cc1)C(=O)N[C@@H](CCCCN)C(=O)N[C@@H](CCCCN)C(=O)N[C@@H](C)C(=O)N1CCC[C@H]1C(=O)N[C@H](C(=O)N[C@@H](CC(N)=O)C(=O)N[C@@H](CCC(=O)O)C(=O)N[C@@H](Cc1ccccc1)C(=O)N[C@@H](Cc1ccc(O)cc1)C(=O)N[C@@H](C)C(=O)O)[C@@H](C)O [SDC4cyt] ({Biotin-Ahx}-RMKKKDEGSYDLGKKPIYKKAPTNEFYA-OH)

biotin-SDC4cyt binding to 30 amino acid-long overlapping MLP-WT peptides [1]: binding was confirmed
Compound: MLP-WT peptide aa 25–54: 30 amino acid-long overlapping MLP-WT peptide, amino acids 25–54 (CNGRSFHKTCFHCMACRKALDSTTVAAHES)

biotinylated SDC4cyt binding to mutated MLP peptide compared with MLP-WT peptide [1]: did not alter the binding
Compound: MPNRGGGAKCGACEKTVYHAEEIQCNGRSF [MLP-W4R, 30-mer human MLP peptide with W4R mutation]

binding to 20-mer overlapping human MLP peptides on membrane (human MLP): did not recognize any human MLP sequence
Compound: GTKYPKMDRGKLFKYKAKPEDNESAYIK [SDC4scram]

binding of biotinylated MLP-WT peptide to full-length recombinant 6xHis-MLP-WT (self-association) (recombinant 6xHis-MLP): Minimal binding
Compound: MLP-WT peptide aa 165–194: biotinylated 30-mer MLP-WT peptide, amino acids 165–194 (Biotin-ELYCKVCYAKNFGPTGIGFGGLTQQVEKKE; cysteine pairing not given here)

biotinylated SDC4cyt binding to mutated MLP peptide compared with MLP-WT peptide [1]: tendency of reduced binding
Compound: AAHESEIYCKVCYGRRYGPRGIGYGQGAGC [MLP-K69R, 30-mer human MLP peptide with K69R mutation]
